The record followed here is patent US20130261108A1, “COMPOSITIONS AND METHODS FOR MODULATING FARNESOID X RECEPTORS” (IRM LLC, priority 2010, published 2013).

Molecules are shown by their SMILES.

The target in this experiment is T1, human Farnesoid X Receptor (FXR) ligand binding domain (Homo sapiens, UniProt Q96RI1).
T1 construct: purchased Invitrogen
T1 sequence (Q96RI1 193-472 isoform Q96RI1-2): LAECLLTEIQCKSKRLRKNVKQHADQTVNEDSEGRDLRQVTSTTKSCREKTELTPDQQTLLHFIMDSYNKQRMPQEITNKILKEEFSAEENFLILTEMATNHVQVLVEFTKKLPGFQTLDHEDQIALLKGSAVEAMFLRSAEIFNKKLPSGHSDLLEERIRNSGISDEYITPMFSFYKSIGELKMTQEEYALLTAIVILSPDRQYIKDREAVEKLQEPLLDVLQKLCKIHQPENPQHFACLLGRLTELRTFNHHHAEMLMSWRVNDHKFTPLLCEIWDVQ
Nature of the experiment: Human GST-FXR LBD co-activator interaction assay (FXR HTRF assay). Conditions: GST-FXR LBD with biotin-labeled SRC-1 peptide, FRET/HTRF, 2.5 hours at room temperature; response relative to GW4064; read-out: FXR coactivator interaction assay (HTRF) (EC50). The experiment is classed as biochemical. The source says: Human GST-FXR LBD Co-Activator Interaction Assay.
The FXR HTRF assay is a biochemical assay measuring the interaction between FXR and a coactivator protein (SRC1). The ligand-induced interaction with a coactivator protein is a critical step in transcriptional activation by FXR. Thus, this is an assay designed to measure FXR agonist activity of compounds.
The ligand-dependent interaction between GST-FXR LBD and a peptide derived from Steroid Receptor Coactivator-1 (SRC-1) was monitored by Fluorescence Resonance Energy Transfer (FRET). […] Test compounds (in DMSO solution) and detection reagents (anti-GST-Cryptate labeled antibody and Streptavidin-XL665 conjugate; CisBio) were added in assay buffer containing 50 mM KF. Plates are incubated at room temperature in the dark for 2.5 hours before reading on an Envision (PerkinElmer) at 665 nm and 590 nm.
A negative control (without Streptavidin-XL665) was run with each assay and represented the background fluorescence. A reference FXR agonist, GW4064, was included in each experiment as positive control. The efficacy of each test compound was compared to that of GW4064. At each concentration, the relative activity of the test compound was expressed as Response %=(Rsample−RDMSO)/(Rpositive−RDMSO), where Rsample is the HTRF response (expressed in Delta F %) for the test compound, Rpositive is the maximal response for GW4064 at saturating concentrations, and RDMSO is the response for DMSO control. The EC50 values were calculated using GraphPad Prism (GraphPad Software) using non-linear regression curve fit (log(agonist) vs. response−variable slope (four parameters)).
A general note: Time-resolved FRET reads energy transfer from a long-lived donor to a nearby acceptor.

As a reminder, the EC50 is the concentration needed to bring the measured effect to its halfway point. Turning to `O=C(O)CNC(=O)c1ccc2nc(N3CCC(OCc4c(-c5ccccc5OC(F)(F)F)noc4C4CC4)CC3)sc2c1` [Example 8-1B, 2-(2-(4-((5-cyclopropyl-3-(2-(trifluoromethoxy)phenyl)isoxazol-4-yl)methoxy)piperidin-1-yl)benzo[d]thiazole-6-carboxamido)acetic acid], the 50% effective concentration (EC50) came out at 20 nM.

In the case of `O=C(NCCS(=O)(=O)O)c1ccc2nc(N3CCC(OCc4c(-c5ccccc5OC(F)(F)F)noc4C4CC4)CC3)sc2c1` [Example 9, 2-(2-(4-((5-cyclopropyl-3-(2-(trifluoromethoxy)phenyl)isoxazol-4-yl)methoxy)piperidin-1-yl)benzo[d]thiazole-6-carboxamido)ethanesulfonic acid], the EC50 turned out to be 87 nM.

Regarding `O=C(O)c1ccc2nc(N3CCC(OCc4c(COc5c(Cl)cccc5Cl)noc4C4CC4)CC3)sc2c1` [Example 10-1, 2-(4-{[5-cyclopropyl-3-(2,6-dichlorophenoxymethyl)-1,2-oxazol-4-yl]methoxy}piperidin-1-yl)-1,3-benzothiazole-6-carboxylic acid], the concentration for a half-maximal effect (EC50) was 89 nM.

In the case of `O=C(O)c1ccc2nc(N3CCC(OCc4c(CC5CCCCC5)noc4C4CC4)CC3)sc2c1` [Example 10-2, 2-(4-{[3-(cyclohexylmethyl)-5-cyclopropyl-1,2-oxazol-4-yl]methoxy}piperidin-1-yl)-1,3-benzothiazole-6-carboxylic acid], the EC50 is 357 nM.
